Values joined by “and” are separate entries in the source; they are usually repeats but may differ in a detail not shown here. Identical values can stand only once. Like-named read-outs stand apart in the source and are kept apart here.
Experiments:
[1] = tested on: E. coli; details: 24 h contact time
Source text: (§1) PU formulated at a TDI: PPG mole ratio of 1.5:1 are post treated with water.

[2] = tested on: S. aureus; details: 24 h contact time
Source text: as §1

[3] = tested on: Escherichia coli ATCC 11229; details: for E. coli on sprayed household surfaces: metal plate, wall paper, vinyl tile, 0.06% silver solution
Protocol: The antimicrobial activities of the coatings on coupons and slides are tested against both Gram-positive (Staphylococcus aureus ATCC 6538) and Gram-negative (Escherichia coli ATCC 11229) bacteria. The following set of steps are executed over a four day period, in order to evaluate the coatings for antimicrobial activity.
(1) Three colonies are picked from a Petri dish that contains refrigerator stock of E. coli and S. aureus. Each of the colonies is placed into a separate test tube of 5 mL of TSB (tryptic soy broth); (2) the TSB cultures are incubated in a heated shaker; the culture is grown overnight at 37° C. while shaking at 175 rpm.
(1) 500 μL (0.5 mL) of FINAL E. coli bacteria are placed onto the center of each sterilized coating (24 hour); the same is done with S. aureus; (2) the coupons/coatings are stored for 24 hours in sealed pan by stacking Petri dishes on top of one another; (3) 200 mL of sterile water is added to the bottom of each pan; each pan is enclosed with clear saran wrap and aluminum foil; the Pyrex pans containing the coatings are incubated at room temperature for 24 hours; all inoculations of the coatings are performed in the same laminar flow hood as where the sterilized slides are placed into sterile Petri dishes; the prepared bacterial suspension (0.5 ml) is directly pipetted onto the coating of the slide; the spreading of the innoculum across the surface of the coating is observed and noted.
(1) 500 μL (0.5 mL) of FINAL E. coli bacteria is placed onto the center of each sterilized coating (0 hour); the same is done with S. aureus; (2) after bacteria are added to the 0 hour coatings, each Petri dish (containing the coating) is submerged with 25 mL of PBS; this immersion stops the viable bacteria from continuing to grow; (3) 100 μL of fluid is removed from coatings dish and placed in the middle of a previously labeled TSA plate; this is done to both agar plates labeled with −1 concentration; before removing the fluid, the surface of the coupon is scratched with a sterile loop to activate movement of bacteria; (4) “hockey sticks” are sterilized with ethanol and flame, to spread solution thoroughly; (5) the concentration of bacteria is diluted by removing 500 μL of the fluid in the coupon dish and placing it into a test tube with 4.5 mL of PBS; this solution is diluted in duplicate by removing 100 μL of the fluid and spreading into TSA plates labeled −2; (6) sterilized “hockey sticks” are used to spread solution thoroughly; (7) 500 μL of fluid from 1st tube prepared in step 5 is removed and placed into 4.5 mL of PBS; this dilution is mixed and 100 μL is removed in duplicate and placed into two new TSA plates labeled −3; (8) sterilized “hockey sticks” are used to spread these dilutions thoroughly; (9) steps 1-8 are repeated for each of the coupons or slides.

[4] = tested on: S. aureus; assay type: cell-based, Staphylococcus aureus; details: laboratory acrylic clearcoat, 24 h contact time
Source text: A laboratory experimental solvent based acrylic paint is formulated and then used to challenge S. aureus by adding various levels of the invention silver anionic surfactants as described in Example 33. A binder is made by solution polymerization of butyl acrylate (25% w/w), methylmethacrylate (73.5% w/w), and methacrylic acid (1.5% w/w) in amylacetate using thermal initiation. This solution polymer is then used to make a 60% solids clearcoat binder in xylene/methanol (5:1 by weight). The silver anionic surfactants are dissolved in this same xylene/methanol mixture prior to addition to the clearcoat.

[5] = tested on: Staphylococcus aureus ATCC 6538;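 note: bacterial suspension pipetted onto each coated surface, then recovered in PBS, serially diluted and spread on TSA plates to count viable colonies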
[6] = 0.01 weight % Ag in PU composition
[7] = 0.03 weight % Ag in PU composition
[8] = 0.10 weight % Ag in PU composition
[9] = 0.30 weight % Ag in PU composition
[10] = 1.0 weight % Ag in PU composition
[11] = 3.0 weight % Ag in PU composition
[12] = acetate sprayed with 0.06% w/w AgAOT/isopropanol, 0 h contact time
[13] = acetate sprayed with 0.06% w/w AgAOT/isopropanol, 24 h contact time
[14] = cotton sprayed with 0.06% w/w AgAOT/isopropanol, 0 h contact time
[15] = cotton sprayed with 0.06% w/w AgAOT/isopropanol, 24 h contact time
[16] = linen sprayed with 0.06% w/w AgAOT/isopropanol, 0 h contact time
[17] = linen sprayed with 0.06% w/w AgAOT/isopropanol, 24 h contact time
[18] = metal plate sprayed with 0.06% Ag+ AgAOT solution, 0 h contact time
[19] = metal plate sprayed with 0.06% Ag+ AgAOT solution, 24 h contact time
[20] = polyester sprayed with 0.06% w/w AgAOT/isopropanol, 0 h contact time
[21] = polyester sprayed with 0.06% w/w AgAOT/isopropanol, 24 h contact time
[22] = rayon sprayed with 0.06% w/w AgAOT/isopropanol, 0 h contact time
[23] = rayon sprayed with 0.06% w/w AgAOT/isopropanol, 24 h contact time
[24] = silk sprayed with 0.06% w/w AgAOT/isopropanol, 0 h contact time
[25] = silk sprayed with 0.06% w/w AgAOT/isopropanol, 24 h contact time
[26] = silk sprayed with 0.24% w/w AgAOT/isopropanol, 0 h
[27] = silk sprayed with 0.24% w/w AgAOT/isopropanol, 24 h
[28] = vinyl tile sprayed with 0.06% Ag+ AgAOT solution, 0 h contact time
[29] = vinyl tile sprayed with 0.06% Ag+ AgAOT solution, 24 h contact time
[30] = wall-paper sprayed with 0.06% Ag+ AgAOT solution, 0 h contact time
[31] = wall-paper sprayed with 0.06% Ag+ AgAOT solution, 24 h contact time

For CCCCC(CC)COC(=O)CC(C(=O)OCC(CC)CCCC)S(=O)(=O)[O-].[Ag+] (stereo not shown) [AgAOT], the “E. coli growth on PU composition” value [1, 6] was “+”, the “E. coli growth on PU composition” value [1, 7] was “+” and the “E. coli growth on PU composition” value [1, 8] was “+”. The “E. coli growth on PU composition” value [1, 9] was “−”, the “E. coli growth on PU composition” value [1, 10] was “−” and the “E. coli growth on PU composition” value [1, 11] was “−”. The “Silver level providing complete inhibition” value ([1]; PU composition) was 0.30 % w/w silver, the “S. aureus growth on PU composition” value [2, 6] was “+” and the “S. aureus growth on PU composition” value [2, 7] was “+”. The “S. aureus growth on PU composition” value [2, 8] was “+”, the “S. aureus growth on PU composition” value [2, 9] was “−” and the “S. aureus growth on PU composition” value [2, 10] was “−”. The “S. aureus growth on PU composition” value [2, 11] was “−”, the “Silver level providing complete inhibition” value ([2]; PU composition) was 0.30 % w/w silver and the “E. coli growth on sprayed fabrics” value ([3]; 0.06% Ag AgAOT/isopropanol, 24 h contact time) was “With the single exception of silk, complete eradication is obtained for each of the other fabrics”. For the same compound, the “E. coli CFU/mL, Average” value [3, 12] was 3.08E+05 CFU/mL, the “E. coli CFU/mL, Average” value [3, 13] was 0.00E+00 CFU/mL and the “E. coli CFU/mL, Run #1-#4” value [3, 13] was 0.00E+00 CFU/mL. The “E. coli CFU/mL, Average” value [3, 14] was 2.53E+05 CFU/mL, the “E. coli CFU/mL, Average” value [3, 15] was 0.00E+00 CFU/mL and the “E. coli CFU/mL, Run #1-#4” value [3, 15] was 0.00E+00 CFU/mL. The “E. coli CFU/mL, Average” value [3, 16] was 1.46E+05 CFU/mL, the “E. coli CFU/mL, Average” value [3, 17] was 0.00E+00 CFU/mL and the “E. coli CFU/mL, Run #1-#4” value [3, 17] was 0.00E+00 CFU/mL. The “E. coli CFU/mL, Avg” value [3, 18] was 3.10E+05 CFU/mL, the “E. coli CFU/mL, Run #1-#2” value [3, 18] was 3.40E+05 CFU/mL and 2.80E+05 CFU/mL and the “E. coli CFU/mL, Avg” value [3, 19] was 0.00E+00 CFU/mL. For the same compound, the “E. coli CFU/mL, Run #1-#2” value [3, 19] was 0.00E+00 CFU/mL, the “E. coli on sprayed household surfaces” value ([3]; 0 h contact time (5-10 minutes)) was “does not significantly attenuate E. coli growth” and the “E. coli on sprayed household surfaces” value ([3]; 24 h contact time) was “eradicated on each of the samples”. The “E. coli CFU/mL, Average” value [3, 20] was 9.10E+04 CFU/mL, the “E. coli CFU/mL, Average” value [3, 21] was 0.00E+00 CFU/mL and the “E. coli CFU/mL, Run #1-#4” value [3, 21] was 0.00E+00 CFU/mL. The “E. coli CFU/mL, Average” value [3, 22] was 2.88E+05 CFU/mL, the “E. coli CFU/mL, Average” value [3, 23] was 3.25E+05 CFU/mL and the “E. coli CFU/mL, Average” value [3, 24] was 2.55E+05 CFU/mL. The “E. coli CFU/mL, Run #1-#2” value [3, 24] was 2.70E+05 CFU/mL and 2.40E+05 CFU/mL, the “E. coli CFU/mL, Average” value [3, 25] was 2.75E+07 CFU/mL and the “E. coli CFU/mL, Average” value [3, 26] was 3.38E+05 CFU/mL. For the same compound, the “E. coli CFU/mL, Run #1-#4” value [3, 26] was 3.20E+05 CFU/mL and 3.60E+05 CFU/mL and 3.10E+05 CFU/mL, the “E. coli CFU/mL, Average” value [3, 27] was 0.00E+00 CFU/mL and the “E. coli CFU/mL, Run #1-#4” value [3, 27] was 0.00E+00 CFU/mL. For the same compound, the “E. coli CFU/mL, Avg” value [3, 28] was 2.60E+05 CFU/mL, the “E. coli CFU/mL, Run #1-#2” value [3, 28] was 2.30E+05 CFU/mL and 2.90E+05 CFU/mL and the “E. coli CFU/mL, Avg” value [3, 29] was 0.00E+00 CFU/mL. For the same compound, the “E. coli CFU/mL, Run #1-#2” value [3, 29] was 0.00E+00 CFU/mL, the “E. coli CFU/mL, Avg” value [3, 30] was 1.94E+05 CFU/mL and the “E. coli CFU/mL, Avg” value [3, 31] was 0.00E+00 CFU/mL. For the same compound, the “E. coli CFU/mL, Run #1-#2” value [3, 31] was 0.00E+00 CFU/mL, the “Silver level with partial growth” value [4] was “this lowest level” and the “S. aureus CFU/mL, Average” value [5, 12] was 0.00E+00 CFU/mL. The “S. aureus CFU/mL, Run #1-#4” value [5, 12] was 0.00E+00 CFU/mL, the “S. aureus CFU/mL, Average” value [5, 13] was 0.00E+00 CFU/mL and the “S. aureus CFU/mL, Run #1-#4” value [5, 13] was 0.00E+00 CFU/mL. For the same compound, the “S. aureus CFU/mL, Average” value [5, 14] was 0.00E+00 CFU/mL, the “S. aureus CFU/mL, Run #1-#4” value [5, 14] was 0.00E+00 CFU/mL and the “S. aureus CFU/mL, Average” value [5, 15] was 0.00E+00 CFU/mL. For the same compound, the “S. aureus CFU/mL, Run #1-#4” value [5, 15] was 0.00E+00 CFU/mL, the “S. aureus CFU/mL, Average” value [5, 16] was 1.24E+04 CFU/mL and the “S. aureus CFU/mL, Average” value [5, 17] was 0.00E+00 CFU/mL. For the same compound, the “S. aureus CFU/mL, Run #1-#4” value [5, 17] was 0.00E+00 CFU/mL, the “S. aureus CFU/mL, Avg” value [5, 18] was 3.90E+04 CFU/mL and the “S. aureus CFU/mL, Avg” value [5, 19] was 0.00E+00 CFU/mL. For the same compound, the “S. aureus CFU/mL, Run #1-#2” value [5, 19] was 0.00E+00 CFU/mL, the “S. aureus on sprayed household surfaces” value ([5]; metal plate, wall paper, vinyl tile, 0.06% silver solution, 24 h contact time) was “Complete killing is obtained for each of the surfaces” and the “S. aureus CFU/mL, Average” value [5, 20] was 0.00E+00 CFU/mL. The “S. aureus CFU/mL, Run #1-#4” value [5, 20] was 0.00E+00 CFU/mL, the “S. aureus CFU/mL, Average” value [5, 21] was 0.00E+00 CFU/mL and the “S. aureus CFU/mL, Run #1-#4” value [5, 21] was 0.00E+00 CFU/mL. For the same compound, the “S. aureus CFU/mL, Average” value [5, 22] was 1.88E+02 CFU/mL, the “S. aureus CFU/mL, Average” value [5, 23] was 0.00E+00 CFU/mL and the “S. aureus CFU/mL, Run #1-#4” value [5, 23] was 0.00E+00 CFU/mL. The “Inhibition of S. aureus growth” value ([5]; rayon, 0.06% Ag AgAOT/isopropanol, 0 h contact time) was 3 orders of magnitude, the “S. aureus CFU/mL, Average” value [5, 24] was 1.45E+05 CFU/mL and the “S. aureus CFU/mL, Run #1-#2” value [5, 24] was 1.80E+05 CFU/mL and 1.10E+05 CFU/mL. The “S. aureus CFU/mL, Average” value [5, 25] was 9.13E+03 CFU/mL, the “S. aureus CFU/mL, Average” value [5, 26] was 1.35E+05 CFU/mL and the “S. aureus CFU/mL, Average” value [5, 27] was 0.00E+00 CFU/mL. The “S. aureus CFU/mL, Run #1-#4” value [5, 27] was 0.00E+00 CFU/mL, the “S. aureus CFU/mL, Avg” value [5, 28] was 1.25E+05 CFU/mL and the “S. aureus CFU/mL, Avg” value [5, 29] was 0.00E+00 CFU/mL. For the same compound, the “S. aureus CFU/mL, Run #1-#2” value [5, 29] was 0.00E+00 CFU/mL, the “S. aureus CFU/mL, Avg” value [5, 30] was 9.75E+04 CFU/mL and the “S. aureus CFU/mL, Avg” value [5, 31] was 0.00E+00 CFU/mL. For the same compound, the “S. aureus CFU/mL, Run #1-#2” value [5, 31] was 0.00E+00 CFU/mL.
